Source: US11986471B2, “Compounds and methods of use” (Tango Therapeutics, Inc., priority 2018, dated 2024)

Tests used:
PRMT5 [1] = molecular target: T1, PRMT5 (Homo sapiens, UniProt O14744); assay: PRMT5 IC50 assay in the presence of SAM as cofactor; type: biochemical
T1 construct: purchased Viva (custom protein)
Summary of the method: (§1)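 Three cofactor conditions tested for PRMT5 inhibition: none, MTA and SAM, each giving an IC50. For conversion to Ki, the MTA-condition IC50 is divided by 13.5 and the SAM-condition IC50 by 1.5, and the two Ki values are expressed as a SAM/MTA ratio.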

PRMT5 [2] = molecular target: T1, PRMT5; assay: PRMT5 IC50 assay with no cofactor; type: biochemical
Summary of the method: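 Human PRMT5 inhibition, IC50 in μM; cofactor varied (SAM / MTA / none).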

PRMT5 [3] = molecular target: T1, PRMT5; assay: PRMT5 IC50 assay in the presence of MTA as cofactor; type: biochemical; conditions: for IC50: PRMT5, MTA as cofactor
Summary of the method: as §1

HAP1 MTAP-intact = assay: SDMA in-cell western assay, HAP1 MTAP-intact cell line; type: cell-based; conditions: Homo sapiens
Summary of the method: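 HAP1 isogenic pair: endogenous MTAP vs MTAP-null. Readout SDMA by in-cell western; IC50 per line. Ratio ≥3 fold = MTAP-selective.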

HAP1 MTAP-deleted = assay: SDMA in-cell western assay, HAP1 MTAP-deleted cell line; type: cell-based; conditions: for IC50: Homo sapiens, HAP1 MTAP-deleted cell line; for MTAP Intact/Deleted Ratio: IC50 ratio HAP1 MTAP-intact / HAP1 MTAP-deleted
Summary of the method: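 IC50 from SDMA in-cell western; HAP1 line lacking MTAP (null), paired isogenically with MTAP-intact HAP1 expressing endogenous MTAP.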

[4] = ratio between the Ki in the presence of SAM and the Ki in the presence of MTA
[5] = ratio between Ki in the presence of SAM and Ki in the presence of MTA

T1 sequence (O14744 whole entry): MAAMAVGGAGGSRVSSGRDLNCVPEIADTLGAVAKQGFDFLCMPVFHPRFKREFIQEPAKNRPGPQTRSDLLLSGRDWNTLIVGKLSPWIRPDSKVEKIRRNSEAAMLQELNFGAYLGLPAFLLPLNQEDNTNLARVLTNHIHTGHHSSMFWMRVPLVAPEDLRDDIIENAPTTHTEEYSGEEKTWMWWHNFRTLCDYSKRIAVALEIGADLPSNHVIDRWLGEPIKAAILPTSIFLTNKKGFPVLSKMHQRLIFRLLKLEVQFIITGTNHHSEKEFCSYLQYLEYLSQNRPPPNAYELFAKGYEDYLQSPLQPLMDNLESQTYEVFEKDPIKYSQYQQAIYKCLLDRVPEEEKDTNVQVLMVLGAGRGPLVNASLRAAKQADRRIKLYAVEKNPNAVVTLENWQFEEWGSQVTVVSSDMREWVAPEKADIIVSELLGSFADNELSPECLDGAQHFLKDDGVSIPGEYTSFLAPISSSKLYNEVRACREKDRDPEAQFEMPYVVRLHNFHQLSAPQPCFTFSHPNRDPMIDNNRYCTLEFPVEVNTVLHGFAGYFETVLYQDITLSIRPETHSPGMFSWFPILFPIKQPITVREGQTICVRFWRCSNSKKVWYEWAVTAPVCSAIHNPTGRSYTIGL
T1 sequence (Q9BQA1 whole entry partner): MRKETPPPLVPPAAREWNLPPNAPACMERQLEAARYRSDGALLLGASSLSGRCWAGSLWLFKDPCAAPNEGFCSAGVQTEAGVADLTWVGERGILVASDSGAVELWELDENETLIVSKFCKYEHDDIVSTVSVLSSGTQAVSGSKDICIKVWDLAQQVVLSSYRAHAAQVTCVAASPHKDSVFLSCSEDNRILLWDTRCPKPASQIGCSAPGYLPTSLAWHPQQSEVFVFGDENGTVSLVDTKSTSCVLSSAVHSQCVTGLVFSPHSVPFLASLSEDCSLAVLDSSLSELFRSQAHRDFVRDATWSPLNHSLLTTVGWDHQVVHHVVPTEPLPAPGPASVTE

SMILES	IC50 (PRMT5 [1]) [nM]	IC50 (PRMT5 [2]) [nM]	IC50 (PRMT5 [3]) [nM]	SAM/MTA Ratio (PRMT5 [3]; [4])	IC50 (HAP1 MTAP-intact) [nM]	IC50 (HAP1 MTAP-deleted) [nM]	MTAP Intact/Deleted Ratio (HAP1 MTAP-deleted)	IC50 (PRMT5 [2]; read-out: No Co-factor IC50) [nM]	SAM/MTA Ratio (PRMT5 [3]; [5])
CCN(C)c1cc(C(=O)NC[C@H](O)CN2CCc3c(ccc(OCc4cnco4)c3Cl)C2)cc(NC2CCC2)n1 [Compound 445, (S)—N-(3-(5-chloro-6-(oxazol-5-ylmethoxy)-3N-dihydroisoquinolin-2(1H)-yl)-2-hydroxypropyl)-2-(cyclobutylamino)-6-(ethyl(methyl)amino)isonicotinamide]	500 to 5000	≥ 5000	50 to 500	A (a Ki ratio greater than or equal to 10 fold between the Ki in the presence of SAM and the Ki in the presence of MTA)	≥ 10000	≥ 10000	C* (an IC50 ratio of less than 3 fold between the IC50 in the HAP1 MTAP-intact cell line and the HAP1 MTAP-deleted cell line)	–	–
CC(=O)N1CCC(Nc2cc(C(=O)NC[C@H](O)CN3CCc4cc(OCc5ocnc5C)ccc4C3)ccn2)CC1 [Compound 622, (S)-2-((1-acetylpiperidin-4-yl)amino)-N-(2-hydroxy-3-(6-((4-methyloxazol-5-yl)methoxy)-3,4-dihydroisoquinolin-2(1H)-yl)propyl)isonicotinamide]	50 to 500	500 to 5000	< 50	A (a Ki ratio greater than or equal to 10 fold between the Ki in the presence of SAM and the Ki in the presence of MTA)	≥ 10000	< 1000	A* (an IC50 ratio greater than or equal to 10 fold between the IC50 in the HAP1 MTAP-intact cell line and the HAP1 MTAP-deleted cell line)	–	–
CC(=O)N1[C@@H]2CC[C@H]1C[C@H](Nc1cc(C(=O)NC[C@H](O)CN3CCc4cc(OCc5ocnc5C)ccc4C3)ccn1)C2 [Compound 645, 2-(((1R,3r,5S)-8-acetyl-8-azabicyclo[3.2.1]octan-3-yl)amino)-N—((S)-2-hydroxy-3-(6-((4-methyloxazol-5-yl)methoxy)-3,4-dihydroisoquinolin-2(1H)-yl)propyl)isonicotinamide]	50 to 500	–	50 to 500	–	≥ 10000	< 1000	A* (an IC50 ratio greater than or equal to 10 fold between the IC50 in the HAP1 MTAP-intact cell line and the HAP1 MTAP-deleted cell line)	500 to 5000	A (a Ki ratio greater than or equal to 10 fold between the Ki in the presence of SAM and the Ki in the presence of MTA)
CC(=O)N1CC(Nc2cc(C(=O)NC[C@H](O)CN3CCc4c(ccc(OCc5ocnc5C)c4C)C3)nc(N3CCOCC3)n2)C1 [Compound 574, 6-[(1-acetylazetidin-3-yl)amino]-N-[(2S)-2-hydroxy-3-{5-methyl-6-[(4-methyl-1,3-oxazol-5-yl)methoxy]-1,2,3,4-tetrahydroisoquinolin-2-yl}propyl]-2-(morpholin-4-yl)pyrimidine-4-carboxamide]	50 to 500	≥ 5000	50 to 500	A (a Ki ratio greater than or equal to 10 fold between the Ki in the presence of SAM and the Ki in the presence of MTA)	≥ 10000	1000 to 10000	C* (an IC50 ratio of less than 3 fold between the IC50 in the HAP1 MTAP-intact cell line and the HAP1 MTAP-deleted cell line)	–	–
Cc1ncoc1COc1ccc2c(c1)CCN(C[C@@H](O)CNC(=O)c1cc(NC3CCC3)nc(OCCN(C)C)c1)C2 [Compound 406, 2-(cyclobutylamino)-6-[2-(dimethylamino)ethoxy]-N-[(2S)-2-hydroxy-3-{6-[(4-methyl-1,3-oxazol-5-yl)methoxy]-1,2,3,4-tetrahydroisoquinolin-2-yl}propyl]pyridine-4-carboxamide]	50 to 500	–	< 50	–	< 1000	< 1000	B* (an IC50 ratio greater than or equal to 3 fold but lower than 10 fold between the IC50 in the HAP1 MTAP-intact cell line and the HAP1 MTAP-deleted cell line)	500 to 5000	A (a Ki ratio greater than or equal to 10 fold between the Ki in the presence of SAM and the Ki in the presence of MTA)
CC(C)C(=O)N1CCN(c2nc(NC3COC3)cc(C(=O)NC[C@H](O)CN3CCc4cc(OCc5cnco5)ccc4C3)n2)CC1 [Compound 313]	50 to 500	–	50 to 500	–	1000 to 10000	1000 to 10000	C* (an IC50 ratio of less than 3 fold between the IC50 in the HAP1 MTAP-intact cell line and the HAP1 MTAP-deleted cell line)	500 to 5000	A (a Ki ratio greater than or equal to 10 fold between the Ki in the presence of SAM and the Ki in the presence of MTA)
CCCC(=O)N1CCC(Nc2cc(C(=O)NC[C@H](O)CN3CCc4cc(OCc5cnco5)ccc4C3)ccn2)CC1 [Compound 431, 2-[(1-butanoyl-4-piperidyl)amino]-N-[(2S)-2-hydroxy-3-[6-(oxazol-5-ylmethoxy)-3,4-dihydro-1H-isoquinolin-2-yl]propyl]pyridine-4-carboxamide]	50 to 500	500 to 5000	50 to 500	A (a Ki ratio greater than or equal to 10 fold between the Ki in the presence of SAM and the Ki in the presence of MTA)	1000 to 10000	< 1000	B* (an IC50 ratio greater than or equal to 3 fold but lower than 10 fold between the IC50 in the HAP1 MTAP-intact cell line and the HAP1 MTAP-deleted cell line)	–	–
Cc1ncoc1COc1ccc2c(c1Br)CCN(C[C@@H](O)CNC(=O)c1cccc(NC3CCC3)c1)C2 [Compound 354, (S)—N-(3-(5-bromo-6-((4-methyloxazol-5-yl)methoxy)-3,4-dihydroisoquinolin-2(1H)-yl)-2-hydroxypropyl)-3-(cyclobutylamino)benzamide]	500 to 5000	–	500 to 5000	–	≥ 10000	≥ 10000	C* (an IC50 ratio of less than 3 fold between the IC50 in the HAP1 MTAP-intact cell line and the HAP1 MTAP-deleted cell line)	≥ 5000	–
O=C(NC[C@H](O)CN1CCc2c(ccc(OCc3cnco3)c2Cl)C1)c1ccnc(NC2CCCC(F)(F)C2)c1 (stereo partly drawn) [Compound 347]	50 to 500	–	50 to 500	–	≥ 10000	≥ 10000	C* (an IC50 ratio of less than 3 fold between the IC50 in the HAP1 MTAP-intact cell line and the HAP1 MTAP-deleted cell line)	≥ 5000	A (a Ki ratio greater than or equal to 10 fold between the Ki in the presence of SAM and the Ki in the presence of MTA)
CC(=O)N1CC(Nc2cc(C(=O)NC[C@H](O)CN3CCc4c(ccc(OCc5cnco5)c4C)C3)ccn2)C1 [Compound 512, (S)-2-((1-acetylazetidin-3-yl)amino)-N-(2-hydroxy-3-(5-methyl-6-(oxazol-5-ylmethoxy)-3,4-dihydroisoquinolin-2(1H)-yl)propyl)isonicotinamide]	50 to 500	≥ 5000	50 to 500	A (a Ki ratio greater than or equal to 10 fold between the Ki in the presence of SAM and the Ki in the presence of MTA)	≥ 10000	≥ 10000	C* (an IC50 ratio of less than 3 fold between the IC50 in the HAP1 MTAP-intact cell line and the HAP1 MTAP-deleted cell line)	–	–
O=C(NC[C@H](O)CN1CCc2cc(OCc3cnco3)ccc2C1)c1cncc(NC2CCOC2)c1 (stereo partly drawn) [Compound 355, N—((S)-2-hydroxy-3-(6-(oxazol-5-ylmethoxy)-3,4-dihydroisoquinolin-2(1H)-yl)propyl)-5-((tetrahydrofuran-3-yl)amino)nicotinamide]	500 to 5000	–	50 to 500	–	≥ 10000	≥ 10000	C* (an IC50 ratio of less than 3 fold between the IC50 in the HAP1 MTAP-intact cell line and the HAP1 MTAP-deleted cell line)	≥ 5000	A (a Ki ratio greater than or equal to 10 fold between the Ki in the presence of SAM and the Ki in the presence of MTA)
CC(C)CC(=O)N1CCC(Nc2cc(C(=O)NC[C@H](O)CN3CCc4c(ccc(OCc5cnco5)c4Cl)C3)ccn2)CC1 [Compound 443, (S)—N-(3-(5-chloro-6-(oxazol-5-ylmethoxy)-3N-dihydroisoquinolin-2(1H)-yl)-2-hydroxypropyl)-2-((1-(3-methylbutanoyl)piperidin-4-yl)amino)isonicotinamide]	50 to 500	500 to 5000	50 to 500	A (a Ki ratio greater than or equal to 10 fold between the Ki in the presence of SAM and the Ki in the presence of MTA)	≥ 10000	< 1000	A* (an IC50 ratio greater than or equal to 10 fold between the IC50 in the HAP1 MTAP-intact cell line and the HAP1 MTAP-deleted cell line)	–	–
CC(=O)N1CCC(Nc2cc(C(=O)NC[C@H](O)CN3CCc4c(ccc(OCc5cnco5)c4C)C3)ncn2)CC1 [Compound 198, 6-[(1-acetyl-4-piperidyl)amino]-N-[(2S)-2-hydroxy-3-[5-methyl-6-(oxazol-5-ylmethoxy)-3,4-dihydro-1H-isoquinolin-2-yl]propyl]pyrimidine-4-carboxamide]	50 to 500	–	50 to 500	–	≥ 10000	1000 to 10000	C* (an IC50 ratio of less than 3 fold between the IC50 in the HAP1 MTAP-intact cell line and the HAP1 MTAP-deleted cell line)	≥ 5000	A (a Ki ratio greater than or equal to 10 fold between the Ki in the presence of SAM and the Ki in the presence of MTA)
